Structures can show the parent of a compound that is named as a salt.

One series deals with human thrombin (Homo sapiens, UniProt P00734). Kind of series: Measurement of Thrombin Inhibition (chromogenic substrate S-2238). Format: biochemical. Particulars: test b); read-out: IC50 against thrombin. How it is done:
b) Measurement of Thrombin Inhibition
The procedure of method a) was repeated except that human thrombin (0.005 Units/ml) and the chromogenic substrate S-2238 (KabiVitum AB, 7 μM) were employed.
Turning to `O=C(c1ccc(S(=O)(=O)c2ccc3cc(Cl)ccc3c2)cc1)N1CCN(c2ccncc2)CC1` [Example 1, 1-[4-(6-chloronaphth-2-ylsulphonyl)benzoyl]-4-(4-pyridyl)piperazine], the IC50 (usually the concentration that gives 50% inhibition) is over 40000 nM.

The target in a further series is human Factor Xa (Homo sapiens, UniProt P00742). Briefly: Measurement of Factor Xa Inhibition (chromogenic substrate S-2765). Type of series: biochemical. Particulars: test a); read-out: IC50 against Factor Xa. How it is done: a) Measurement of Factor Xa Inhibition
Sequence of human Factor Xa (P00742 235-488 limits assumed): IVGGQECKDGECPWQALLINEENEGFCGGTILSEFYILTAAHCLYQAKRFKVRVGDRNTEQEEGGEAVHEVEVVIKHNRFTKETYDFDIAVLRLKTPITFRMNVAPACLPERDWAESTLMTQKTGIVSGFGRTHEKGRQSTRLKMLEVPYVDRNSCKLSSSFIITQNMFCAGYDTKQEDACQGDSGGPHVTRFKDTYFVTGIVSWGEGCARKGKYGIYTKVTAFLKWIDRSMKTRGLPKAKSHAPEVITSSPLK
Sequence of human Factor Xa (P00742 41-179 partner limits assumed): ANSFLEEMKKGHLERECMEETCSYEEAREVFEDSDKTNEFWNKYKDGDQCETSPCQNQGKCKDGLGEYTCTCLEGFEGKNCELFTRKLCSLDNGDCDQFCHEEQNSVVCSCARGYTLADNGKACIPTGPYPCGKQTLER
An in vitro assay system was carried out based on the method of Kettner et al., J. Biol. Chem., 1990, 265, 18289-18297, whereby various concentrations of a test compound were dissolved in DMSO and diluted in a pH7.5 buffer containing 0.5% of a polyethylene glycol (PEG 6000) and incubated at 37° C. with human Factor Xa (0.001 Units/ml, 0.3 ml) for 15 minutes. The chromogenic substrate S-2765 (KabiVitum AB, 20 μM) was added and the mixture was incubated at 37° C. for 20 minutes whilst the absorbance at 405 nm was measured. The maximum reaction velocity (Vmax) was determined and compared with that of a control sample containing no test compound. Inhibitor potency was expressed as an IC50 value.
For the molecule `O=C(c1ccc(S(=O)(=O)c2ccc3cc(Cl)ccc3c2)cc1)N1CCN(c2ccncc2)CC1` [Example 1, 1-[4-(6-chloronaphth-2-ylsulphonyl)benzoyl]-4-(4-pyridyl)piperazine], the IC50 stood at 13 nM.

The subject of another series is blood plasma. Kind of series: Measurement of Anticoagulant Activity (in vitro prothrombin time test). More on the design: species or system human, rat or rabbit. Particulars: test c). How it is done: c) Measurement of Anticoagulant Activity
An in vitro assay whereby human, rat or rabbit venous blood was collected and added directly to a sodium citrate solution (3.2 g/100 ml, 9 parts blood to 1 part citrate solution). Blood plasma was prepared by centrifugation (1000 g, 15 minutes) and stored at 2-4° C. Conventional prothrombin time (PT) tests were carried out in the presence of various concentrations of a test compound and the concentration of test compound required to double the clotting time, hereinafter referred to as CT2, was determined. In the PT test, the test compound and blood plasma were incubated at 37° C. for 10 minutes. Tissue thromboplastin with calcium (Sigma Limited, Poole, England) was added and fibrin formation and the time required for a clot to form were determined.
In the case of `O=C(c1ccc(S(=O)(=O)c2ccc3cc(Cl)ccc3c2)cc1)N1CCN(c2ccncc2)CC1` [Example 1, 1-[4-(6-chloronaphth-2-ylsulphonyl)benzoyl]-4-(4-pyridyl)piperazine], the “CT2 (PT), concentration of test compound required to double the clotting time” value was found to be 5 µM.

System in the next series: not given
Assay: not given
Conditions: not given
Consider `O=S(=O)(c1ccc(OC2CCN(c3ccncc3)CC2)cc1)c1ccc2cc(Br)ccc2c1` [Example 22, 4-[4-(6-bromonaphth-2-ylsulphonyl)phenoxy]-1-(4-pyridyl)piperidine], for which the melting point (in general, the temperature of the solid-liquid transition) is 180 to 183 °C. In the case of `Cc1ccc(S(=O)(=O)Nc2ccc(OC3CCN(c4ccncc4)CC3)cc2)cc1` (as salt: hydrochloride) [Example 7, N-{4-[1-(4-pyridyl)piperidin-4-yloxy]phenyl}-4-toluenesulphonamide], the melting point lay within 270 to 272 °C. The molecule `O=S(=O)(c1ccc(S(=O)(=O)N2CCN(c3ccncc3)CC2)cc1)c1ccc2cc(Br)ccc2c1` (as salt: trifluoroacetate) [Example 25, 4-[4-(6-bromonaphth-2-ylsulphonyl)phenylsulphonyl]-1-(4-pyridyl)piperazine] registered a melting point of 236 to 238 °C.

`Cc1ccc(S(=O)(=O)N(c2ccc(OC3CCN(c4ccncc4)CC3)cc2)S(=O)(=O)c2ccc(C)cc2)cc1` [Example 8, N-{4-[1-(4-pyridyl)piperidin-4-yloxy]phenyl}-N-(4-tolylsulphonyl)-4-toluenesulphonamide] showed a melting point of 196 to 198 °C.

Regarding `O=S(=O)(/C=C/c1ccc(Cl)cc1)Nc1ccc(OCC2CCN(c3ccncc3)CC2)cc1` (as salt: hydrochloride) [Example 13, 4-chloro-N-{4-[1-(4-pyridyl)piperidin-4-ylmethoxy]phenyl}-(E)-styrylsulphonamide], the melting point was in the range of 220 to 223 °C.

`O=S(=O)(Nc1ccc(OCC2CCN(c3ccncc3)CC2)cc1)c1ccc(-c2ccc(Br)cc2)cc1` (as salt: hydrochloride) [Example 11, 4′-bromo-N-{4-[1-(4-pyridyl)piperidin-4-ylmethoxy]phenyl}-4-biphenylylsulphonamide] had a melting point of 293 to 295 °C. On the same count and under the same terms, the same measure for `O=C(c1ccc(Sc2ccc3cc(Br)ccc3c2)cc1)N1CCN(c2ccncc2)CC1` [Example 27, 1-[4-(6-bromonaphth-2-ylthio)benzoyl]-4-(4-pyridyl)piperazine]: 210 to 213 °C; for `O=S(=O)(Nc1ccccc1OCC1CCN(c2ccncc2)CC1)c1ccc2cc(Br)ccc2c1` [Example 20, 6-bromo-N-{2-[1-(4-pyridyl)piperidin-4-ylmethoxy]phenyl}-2-naphthalenesulphonamide]: 197 to 200 °C. The molecule `O=S(=O)(Nc1cccc(OC2CCN(c3ccncc3)CC2)c1)c1ccc2cc(Br)ccc2c1` (as salt: hydrochloride) [Example 16, 6-bromo-N-{3-[1-(4-pyridyl)piperidin-4-yloxy]phenyl}-2-naphthalenesulphonamide] had a melting point of 298 to 300 °C.

As to `O=C(c1ccc(S(=O)(=O)c2ccc3cc(Cl)ccc3c2)cc1)N1CCN(c2ccncc2)CC1` [Example 1, 1-[4-(6-chloronaphth-2-ylsulphonyl)benzoyl]-4-(4-pyridyl)piperazine], the melting point lay in the range of 267 to 269 °C. On the same count and under the same terms, next, `O=S(=O)(/C=C/c1ccc(Cl)cc1)Nc1cccc(OC2CCN(c3ccncc3)CC2)c1` (as salt: hydrochloride) [Example 21, 4-chloro-N -{3-[1-(4-pyridyl)piperidin-4-yloxy]phenyl}-(E)-styrylsulphonamide]: 147 to 150 °C; `O=S(=O)(Nc1ccc(OC2CCN(c3ccncc3)CC2)cc1)c1ccc(-c2ccc(Br)cc2)cc1` (as salt: hydrochloride) [Example 4, 4′-bromo-N-{4-[1-(4-pyridyl)piperidin-4-yloxy]phenyl}-4-biphenylylsulphonamide]: 302 to 304 °C. Same read-out and setting: the same measure for `O=S(=O)(Nc1ccc(OCC2CCN(c3ccncc3)CC2)cc1)c1ccc2cc(Br)ccc2c1` (as salt: hydrochloride) [Example 12, 6-bromo-N-{4-[1-(4-pyridyl)piperidin-4-ylmethoxy]-phenyl}-2-naphthalenesulphonamide]: 167 to 169 °C. `O=S(=O)(c1ccc2cc(Br)ccc2c1)N(c1ccc(OCC2CCN(c3ccncc3)CC2)cc1)S(=O)(=O)c1ccc2cc(Br)ccc2c1` [Example 15, 6-bromo-N-(6-bromonaphth-2-ylsulphonyl)-N-{4-[1-(4-pyridyl)piperidin-4-ylmethoxy]phenyl}-2-naphthalenesulphonamide] registered a melting point of 246 to 252 °C. Same read-out and setting: the same measure for `O=S(=O)(c1ccc(-c2ccc(Br)cc2)cc1)N(c1ccc(OCC2CCN(c3ccncc3)CC2)cc1)S(=O)(=O)c1ccc(-c2ccc(Br)cc2)cc1` [Example 14, 4′-bromo-N-(4′-bromo-4-biphenylylsulphonyl)-N-{4-[1-(4-pyridyl)piperidin-4-ylmethoxy]phenyl}-4-biphenylylsulphonamide]: 136 to 140 °C.

Source of the values: patent US7173025B1, “Aminoheterocyclic derivatives as antithrombotic or anticoagulant agents” (Zeneca Limited, priority 1996, dated 2007).
